The text below walks through data of publication PMC9069370, “Integrated Design of a Membrane‐Lytic Peptide‐Based Intravenous Nanotherapeutic Suppresses Triple‐Negative Breast Cancer” (Advanced Science, 2022).

For series [1] the following is noted: ref [69]; cited from earlier work. An excerpt: (§1) Table 1 ACP activity comparison. Reported in vitro anticancer activity (IC50) of ACPs | column: Assay and Notes
A further series deals with HCT116. As to conditions: 2D; ref [69]; cited from earlier work. An excerpt: (§2) Table 1 ACP activity comparison. Reported in vitro anticancer activity (IC50) of ACPs | column: IC50 [µM]
The next series deals with tumor in mouse. The note with it: dose: 25 mg kg^−1; ref [68]; cited from earlier work.
Description: as §1

For the next series, the system named is A549. As to conditions: 2D; ref [68]; cited from earlier work.
Description: as §2

The subject of another series is A20, AT84, MRC‐5. The note with it: ref [22], [23], [57], [63]; cited from earlier work.
Description: as §2

For series [2], the system named is various. The note with it: 2D; ref [70]; cited from earlier work.
Description: as §2

Series [3] has as its system HMLER‐shEcad tumorspheres. Kind of series: cells. As to conditions: 3D multicellular spheroids; reducing tumorsphere cell viability by 90%; read-out: IC90 against HMLER‐shEcad tumorspheres. It counts as cell-based, human.
In series [4] the test system is various. As to conditions: read-out: IC50 [µM], various; 2D and 3D tumorspheres; summary of Figures 2, 3 and 5. An excerpt: The final concentration of DMSO in each well was either 0.5% or 0% and this amount was present in the untreated control.
The next series deals with human red blood cells. Kind of series: Haemolysis (human red blood cells). It counts as cell-based. As to conditions: PBS, 37 °C, 1 h. On the procedure:
Fresh human red blood cells were obtained from Interstate Blood Bank, Inc., and thoroughly washed in PBS until the supernatant was clear. The peptide was serially diluted in PBS starting at a concentration of 200 µM. […] As a positive lysis control, 1% triton was used. […] After centrifugation, 10 µL of supernatant was transferred to 90 µL of ddH2O in a fresh 96‐well plate.

For a further series, the system named is MCF‐10A. Kind of series: cells. It counts as cell-based, human. The note with it: non-cancerous cells; 2D culture, MTT, 72 h incubation; library peptides n = 2; D-enantiomers and small molecules replicated six times; read-out: IC50 (µM) MCF-10A. An excerpt: […], and MCF-10A cells were maintained in MEGM with supplements and growth factors bovine pituitary extract, hydrocortisone, human epidermal growth factor, insulin, and gentamicin/amphotericin-B.

The test system of another series is MCF‐10A mammospheres. Nature of the series: Mammosphere viability assay (TOX8). It counts as cell-based, human. As to conditions: 3D non‐tumorigenic mammospheres.

Where two headings read alike, the source gives them in different places. Peptide text beside a SMILES is read from it. A value given as a limit tells only on which side of the number the result lay.

Turning to LL37, the toxicity note in [1] is listed as 2D; Vascular toxicity. In addition, the IC50 (as a rule, the concentration that gives 50% inhibition) with HCT116 was 40 µM.
In the case of Magainin II, the “outcome in mouse xenograft model” value with tumor in mouse was 2D and mouse xenograft model (dose: 25 mg kg^−1); The tumor in mouse was smaller and still growing in 40 days. Besides, the IC50 in the series with A549 was 45 µM.
On to LTX‐315, for which the IC50 with A20, AT84, MRC‐5 was 8 to 34 µM.
For the compound Aurein 1.2, the IC50 in the series on various [2] was 10 to 100 µM.
For `CC(C)C[C@H](NC(=O)CN)C(=O)N[C@@H](CC(C)C)C(=O)N[C@@H](CCC(=O)O)C(=O)N[C@@H](CC(C)C)C(=O)N[C@@H](CC(C)C)C(=O)N[C@@H](CCC(=O)O)C(=O)N[C@@H](CC(C)C)C(=O)N[C@@H](CC(C)C)C(=O)N[C@@H](CC(C)C)C(=O)N[C@@H](CCCCN)C(=O)N[C@@H](C)C(=O)N[C@@H](C)C(=O)NCC(=O)N[C@@H](Cc1c[nH]c2ccccc12)C(N)=O` [EEK] (H-GLLELLELLLKAAGW-NH2), the IC90 (as a rule, the concentration at which the effect reaches the 90% level) in series [3] was 23 ± 3 µM. Besides, the results for the IC50 in the series with various [4] and in the series with MCF‐10A were 1 to 27 µM and over 200 µM, respectively. Moreover, the “human red blood cell lysis” value in the series on human red blood cells was “only minimal human red blood cell lysis below 90 µM”. The “IC90 against MCF‐10A mammospheres” value in the series on MCF‐10A mammospheres worked out at 141 ± 11 µM.
